From US20240336574A1 (LATIGO BIOTHERAPEUTICS, INC., priority 2021, published 2024)
Read-outs that look alike come from different tables or passages of the source.

Target: T1, recombinant human NaV1.8 stably transfected HEK cells (Homo sapiens, UniProt Q9Y5Y9)
T1 construct: expressed in transfected cells; host or cells: HEK cells, stably transfected
Test: Compound profiling on NaV1.8, human NaV1.8 cell line, SyncroPatch384PE automated patch clamp assay (Example 115, third set of compounds, Table 27)
Format: cell-based
Settings: human NaV1.8 HEK cells, Table 27 (third set of compounds)
Protocol: Compound Profiling on NaV1.8 Human NaV1.8 Cell Line SyncroPatch384PE Assay
Compounds were tested on recombinant human NaV1.8 stably transfected HEK cells using the SyncroPatch384PE system, an automated patch clamp device. Cells were cultured at 37° C./5% CO2 in DMEM medium supplemented with GlutaMAX I, NEAA 1%, FBS 10% and seeded in T175 flasks. Cells were cultured at 30° C. one day prior to recording sodium currents. On the day of the recordings, cells were detached with 0.05% Trypsin-EDTA, resuspended in serum free DMEM medium and placed into the SyncroPatch384PE 6° C. pre-cooled cell hotel and shaken at 200 rpm. Intracellular solution (IC) contained, in mM: 10, CsCl; 110, CsF; 20, EGTA; 10, HEPES. Extracellular solution (EC) contained, in mM: 140, NaCl; 4, KCl; 5, Glucose; 10, HEPES; 2, CaCl2; 1, MgCl2. Washing solution contained, in mM: 40, NMDG; 100, NaCl; 4, KCl; 10, Glucose; 10, HEPES; 5, CaCl2; 1, MgCl2.
Compounds were tested in quadruplicates in 0.1% DMSO and 0.030% Pluronic Acid. Compounds were diluted 1:3.33 in EC solution to create a 10-point concentration response curve, spanning a final concentration range from 10-0.0002 μM in the assay plate. Compounds with low nM potency were retested using a lower concentration range (1-0.00002 μM). Each plate contained tetracaine and another tool compound as positive controls. Up to 7 compounds were tested on one plate. 150 μM tetracaine and 0.1% DMSO were used as high and low controls, respectively.
Whole cell patch clamp recordings were conducted according to Nanion's standard procedure for SyncroPatch384PE®. Cells were held at a holding potential of −120 mV. A depolarization step to 10 mV for 30 ms was applied (P1 measurement), followed by a hyperpolarization step to −100 mV for 100 ms. An inactivation step at −40 mV for 10 sec was applied before stepping to −100 mV for 20 ms, followed by a step to 10 mV for 30 ms (P2 measurement) and then back to −100 mV for 30 ms. Sweep interval was 15 sec with a sampling rate of 10 kHz. Following establishment of the whole-cell configuration in EC, two washing steps with reference buffer were performed to stabilize the baseline. Compounds were then applied by the SynchroPatch into each well and the current was recorded for five minutes in EC, followed by application of tetracaine to achieve full block at the end of the experiment. The potency of the compounds was assessed on two read-outs, resting state block (P1 measurement) or inactivated state block (P2 measurement) to obtain IC50 values. Values were normalized to high (tetracaine) and low (DMSO) controls.

[1] = inactivated state block (P2 measurement), read-out: P2 IC50
[2] = resting state block (P1 measurement), read-out: P1 IC50

T1 sequence (Q9Y5Y9 whole entry): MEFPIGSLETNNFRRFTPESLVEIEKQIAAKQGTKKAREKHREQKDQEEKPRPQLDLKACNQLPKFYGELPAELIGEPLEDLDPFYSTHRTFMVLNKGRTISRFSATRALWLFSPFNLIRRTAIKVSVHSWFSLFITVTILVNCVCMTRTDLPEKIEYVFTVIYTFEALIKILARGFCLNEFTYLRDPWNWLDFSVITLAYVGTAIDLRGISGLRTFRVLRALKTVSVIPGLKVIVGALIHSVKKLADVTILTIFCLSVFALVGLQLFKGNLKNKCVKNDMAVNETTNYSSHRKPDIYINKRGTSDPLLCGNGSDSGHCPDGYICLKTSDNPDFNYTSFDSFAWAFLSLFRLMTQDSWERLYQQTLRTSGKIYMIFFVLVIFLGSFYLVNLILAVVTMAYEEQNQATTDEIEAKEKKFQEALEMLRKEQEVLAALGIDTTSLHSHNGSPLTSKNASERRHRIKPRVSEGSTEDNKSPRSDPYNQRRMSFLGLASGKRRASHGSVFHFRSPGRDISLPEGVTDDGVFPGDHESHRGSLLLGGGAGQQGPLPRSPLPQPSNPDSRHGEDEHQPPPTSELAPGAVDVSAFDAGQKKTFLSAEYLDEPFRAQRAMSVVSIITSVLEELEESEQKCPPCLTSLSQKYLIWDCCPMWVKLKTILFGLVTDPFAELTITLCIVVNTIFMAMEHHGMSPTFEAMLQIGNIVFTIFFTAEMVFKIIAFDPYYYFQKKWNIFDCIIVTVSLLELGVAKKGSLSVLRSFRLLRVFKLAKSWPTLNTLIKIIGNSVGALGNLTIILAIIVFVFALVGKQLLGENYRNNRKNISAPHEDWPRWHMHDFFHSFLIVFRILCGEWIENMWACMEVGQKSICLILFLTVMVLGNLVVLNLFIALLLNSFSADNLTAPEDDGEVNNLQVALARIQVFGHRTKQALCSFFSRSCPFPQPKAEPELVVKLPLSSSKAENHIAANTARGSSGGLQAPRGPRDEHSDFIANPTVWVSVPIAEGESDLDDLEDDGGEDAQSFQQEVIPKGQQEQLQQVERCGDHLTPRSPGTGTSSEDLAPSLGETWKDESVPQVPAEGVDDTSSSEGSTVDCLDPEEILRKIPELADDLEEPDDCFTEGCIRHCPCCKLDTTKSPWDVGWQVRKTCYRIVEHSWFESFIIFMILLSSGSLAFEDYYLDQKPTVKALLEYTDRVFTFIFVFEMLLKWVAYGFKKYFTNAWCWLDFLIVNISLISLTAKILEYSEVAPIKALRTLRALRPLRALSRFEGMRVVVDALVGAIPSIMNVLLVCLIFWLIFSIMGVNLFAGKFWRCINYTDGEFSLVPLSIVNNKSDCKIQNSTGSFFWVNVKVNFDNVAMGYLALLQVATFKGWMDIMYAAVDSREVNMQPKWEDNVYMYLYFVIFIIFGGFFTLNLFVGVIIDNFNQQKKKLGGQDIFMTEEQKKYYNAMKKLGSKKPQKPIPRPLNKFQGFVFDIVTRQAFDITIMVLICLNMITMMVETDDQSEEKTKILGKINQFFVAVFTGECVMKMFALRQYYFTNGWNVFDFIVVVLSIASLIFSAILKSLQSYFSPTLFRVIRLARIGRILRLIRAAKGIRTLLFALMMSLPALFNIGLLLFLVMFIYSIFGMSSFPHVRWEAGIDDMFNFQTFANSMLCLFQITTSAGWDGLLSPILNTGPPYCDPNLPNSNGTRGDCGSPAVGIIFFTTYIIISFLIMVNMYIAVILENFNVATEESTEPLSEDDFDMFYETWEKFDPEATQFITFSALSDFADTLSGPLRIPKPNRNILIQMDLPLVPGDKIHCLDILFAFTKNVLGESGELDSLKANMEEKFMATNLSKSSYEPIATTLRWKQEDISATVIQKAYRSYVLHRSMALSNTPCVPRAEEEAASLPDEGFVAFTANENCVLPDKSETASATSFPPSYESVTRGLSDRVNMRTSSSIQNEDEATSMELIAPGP

SMILES | IC50 [1] [nM] | IC50 [2] [nM]
COc1cc(F)ccc1Oc1nnc(C(F)(F)F)cc1C(=O)Nc1cccc(-n2cnnc2)c1 [Compound 22] | 1000 to 5000 | 1000 to 5000
COc1cc(F)ccc1Oc1nnc(C(F)(F)F)cc1C(=O)Nc1cccc(S(N)(=O)=O)c1 [Compound 39] | ≤ 200 | ≤ 200
COc1cc(F)ccc1Oc1nnc(C(F)(F)F)cc1C(=O)Nc1cccc(N2CCOC2=O)c1 [Compound 57] | > 5000 | > 5000
Cc1cc(F)ccc1Oc1nnc(C(F)(F)F)cc1C(=O)Nc1cccc(-n2cnnc2)c1 [Compound 12] | 1000 to 5000 | 1000 to 5000
Cc1cc(F)ccc1Oc1nnc(C(F)(F)F)cc1C(=O)Nc1ccn2cnnc2c1 [Compound 11] | 1000 to 5000 | 1000 to 5000
COc1cc(F)ccc1Oc1nnc(C(F)(F)F)cc1C(=O)Nc1cncc(S(N)(=O)=O)c1 [Compound 49] | ≤ 200 | ≤ 200
Cc1cc(OC(F)(F)F)ccc1Oc1nnc(C(F)(F)F)cc1C(=O)Nc1ccc(C(N)=O)cc1 [Compound 37] | ≤ 200 | ≤ 200
COc1cc(F)ccc1Oc1nnc(C(F)(F)F)cc1C(=O)Nc1cc(S(C)(=O)=O)ccc1F [Compound 23] | 201 to 500 | 201 to 500
COc1cc(F)ccc1Oc1nnc(C(F)(F)F)cc1C(=O)Nc1cccc(C(N)=O)c1 [Compound 26] | ≤ 200 | ≤ 200
COc1cc(F)ccc1Oc1nnc(C(F)(F)F)cc1C(=O)Nc1ccn2cnnc2c1 [Compound 21] | 501 to 1000 | 501 to 1000
COc1cc(F)ccc1Oc1nnc(C(F)(F)F)cc1C(=O)Nc1cccc(-n2cnnc2C)c1 [Compound 54] | 1000 to 5000 | 1000 to 5000
COC(=O)c1cncc(NC(=O)c2cc(C(F)(F)F)nnc2Oc2ccc(F)cc2OC)n1 [Compound 46] | > 5000 | > 5000
Cc1cc(F)ccc1Oc1nnc(C(F)(F)F)cc1C(=O)Nc1ccc(=O)[nH]c1 [Compound 41] | > 5000 | 1000 to 5000
Cc1cc(F)ccc1Oc1nnc(C(F)(F)F)cc1C(=O)Nc1cccc(-n2cncn2)c1 [Compound 9] | 1000 to 5000 | > 5000
CS(=O)(=O)c1cccc(NC(=O)c2cc(C(F)(F)F)nnc2Oc2cc(OC(F)(F)F)ccc2F)c1 [Compound 44] | 501 to 1000 | 201 to 500
COc1cc(F)ccc1Oc1nnc(C(F)(F)F)cc1C(=O)Nc1cccc(NS(C)(=O)=O)c1 [Compound 18] | 501 to 1000 | 1000 to 5000
Cc1cc(F)ccc1Oc1nnc(C(F)(F)F)cc1C(=O)Nc1ccc(S(C)(=O)=O)cc1 [Compound 40] | > 5000 | 1000 to 5000
Cc1cc(OC(F)(F)F)ccc1Oc1nnc(C(F)(F)F)cc1C(=O)Nc1cccc(S(N)(=O)=O)c1 [Compound 47] | ≤ 200 | ≤ 200
CS(=O)(=O)c1cccc(NC(=O)c2cc(C(F)(F)F)nnc2Oc2ccc(OC(F)F)cc2)c1 [Compound 34] | ≤ 200 | ≤ 200
COc1cc(F)ccc1Oc1nnc(C(F)(F)F)cc1C(=O)Nc1cccc(CS(C)(=O)=O)c1 [Compound 19] | 1000 to 5000 | 1000 to 5000

Results, then the compound that gave them:

IC50 [1] [nM] | IC50 [2] [nM] | SMILES
≤ 200 | ≤ 200 | CS(=O)(=O)c1cccc(NC(=O)c2cc(C(F)(F)F)nnc2Oc2ccc(F)cc2Cl)c1 [Compound 64]
> 5000 | > 5000 | COc1cc(NC(=O)c2cc(C(F)(F)F)nnc2Oc2ccc(F)cc2Cl)ccn1 [Compound 67]
> 5000 | > 5000 | CSc1cccc(NC(=O)c2cc(C(F)(F)F)nnc2Oc2ccc(C#N)cc2C)c1 [Compound 110]
≤ 200 | ≤ 200 | Cc1cc(Br)ccc1Oc1nnc(C(F)(F)F)cc1C(=O)Nc1ccc(C(N)=O)cc1 [Compound 83]
201 to 500 | 201 to 500 | CNC(=O)c1cccc(NC(=O)c2cc(C(F)(F)F)nnc2Oc2ccc(F)cc2OC)c1 [Compound 129, 3-(4-Fluoro-2-methoxyphenoxy)-N-(3-(methylcarbamoyl)phenyl)-6-(trifluoromethyl)pyridazine-4-carboxamide]
≤ 200 | ≤ 200 | Cc1cc(C#N)ccc1Oc1nnc(C(F)(F)F)cc1C(=O)Nc1cccc(S(C)(=N)=O)c1 (centres unmarked) [Compound 114, 3-(4-Cyano-2-methylphenoxy)-N-(3-(S-methylsulfonimidoyl)phenyl)-6-(trifluoromethyl)pyridazine-4-carboxamide]
≤ 200 | ≤ 200 | Cc1cc(Br)ccc1Oc1nnc(C(F)(F)F)cc1C(=O)Nc1cccc(S(C)(=N)=O)c1 (centres unmarked) [Compound 117, 3-(4-Bromo-2-methylphenoxy)-N-(3-(S-methylsulfonimidoyl)phenyl)-6-(trifluoromethyl)pyridazine-4-carboxamide]
> 5000 | 1000 to 5000 | COc1cc(F)ccc1Oc1nnc(C)cc1C(=O)Nc1cccc(S(C)(=N)=O)c1 (centres unmarked) [Compound 94, 3-(4-Fluoro-2-methoxyphenoxy)-6-methyl-N-(3-(S-methylsulfonimidoyl)phenyl)pyridazine-4-carboxamide]
> 5000 | 1000 to 5000 | Cc1cc(C(=O)Nc2cccc(S(C)(=N)=O)c2)c(Oc2ccc(F)cc2C)nn1 (centres unmarked) [Compound 93, 3-(4-Fluoro-2-methyl-phenoxy)-6-methyl-N-[3-(methylsulfonimidoyl)phenyl]pyridazine-4-carboxamide]
1000 to 5000 | 1000 to 5000 | CS(=N)(=O)c1cc(NC(=O)c2cc(C(F)(F)F)nnc2Oc2ccc(F)cc2Cl)ccn1 (centres unmarked) [Compound 97]
201 to 500 | ≤ 200 | COc1cc(F)ccc1Oc1nnc(C(F)(F)F)cc1C(=O)Nc1ccc(C(N)=O)nc1 [Compound 125, N-(6-Carbamoylpyridin-3-yl)-3-(4-fluoro-2-methoxyphenoxy)-6-(trifluoromethyl)pyridazine-4-carboxamide]
> 5000 | > 5000 | Cc1ccc(F)cc1Oc1nnc(C(F)(F)F)cc1C(=O)Nc1cc(S(C)(=O)=O)ccc1F [Compound 71]
501 to 1000 | 501 to 1000 | CS(=O)(=O)c1cc(NC(=O)c2cc(C(F)(F)F)nnc2Oc2ccc(F)cc2Cl)ccn1 [Compound 65]
> 5000 | > 5000 | COc1cc(F)ccc1Oc1nnc(C)cc1C(=O)Nc1cccc(S(C)(=O)=O)c1 [Compound 104]
> 5000 | > 5000 | Cc1c[nH]c(=O)cc1NC(=O)c1cc(C(F)(F)F)nnc1Oc1ccc(F)cc1C [Compound 90, 3-(4-Fluoro-2-methylphenoxy)-N-(5-methyl-2-oxo-1,2-dihydropyridin-4-yl)-6-(trifluoromethyl)pyridazine-4-carboxamide]
201 to 500 | 201 to 500 | COc1ccc(F)cc1Oc1nnc(C(F)(F)F)cc1C(=O)Nc1cccc(S(C)(=N)=O)c1 (centres unmarked) [Compound 116]
1000 to 5000 | 201 to 500 | COc1ccc(F)cc1Oc1nnc(C(F)(F)F)cc1C(=O)Nc1cccc(S(C)(=O)=O)c1 [Compound 81]
201 to 500 | 201 to 500 | COc1cc(C#N)ccc1Oc1nnc(C(F)(F)F)cc1C(=O)Nc1cc(S(C)(=O)=O)ccc1F [Compound 77]
> 5000 | > 5000 | Cc1cc(C#N)ccc1Oc1nnc(C(F)(F)F)cc1C(=O)Nc1cccc(S(C)(=O)=O)c1 [Compound 78]
> 5000 | > 5000 | O=C(Nc1ccc[n+]([O-])c1)c1cc(C(F)(F)F)nnc1Oc1ccc(F)cc1Cl [Compound 62]
≤ 200 | ≤ 200 | COc1cc(C#N)ccc1Oc1nnc(C(F)(F)F)cc1C(=O)Nc1cccc(S(N)(=O)=O)c1 [Compound 121, 3-(4-Cyano-2-methoxyphenoxy)-N-(3-sulfamoylphenyl)-6-(trifluoromethyl)pyridazine-4-carboxamide]
> 5000 | > 5000 | CSc1cccc(NC(=O)c2cc(C(F)(F)F)nnc2Oc2cc(F)ccc2Cl)c1 [Compound 111]
1000 to 5000 | 1000 to 5000 | O=C(Nc1ccc[n+]([O-])c1)c1cc(C(F)(F)F)nnc1Oc1ccc(F)cc1F [Compound 60, 3-(3-(2,4-Difluorophenoxy)-6-(trifluoromethyl)pyridazine-4-carboxamido) pyridine 1-oxide]
